{"source": "patent US10093642B2", "about": "“Multitarget hedgehog pathway inhibitors and uses thereof” (UNIVERSITA' DEGLI STUDI DI SIENA, priority 2013, dated 2018)", "key": {"[1]": {"test_system": "Hh pathway (Gli-RE reporter, activated by SMO agonist SAG)", "assay": "Gli-luciferase reporter assay in SAG-treated NIH 3T3 Shh-light II cells", "assay_type": "cell-based", "details": "for activity as Hh inhibitor in luciferase assay (classification): pharmacophore screening hits; for effect on Hh pathway in luciferase assay: Gli1 gene reporter, pathway activated by SAG, cyclopamine as reference; for Hh inhibitory activity compared with Glabrescione B: 5 μM, Shh Light II cells, preliminary results", "method": "FIG. 4. Effect of active natural compounds identified by the pharmacophore screening in a luciferase assay, where the gene reporter was Gli1 and the pathway was activated by the SAG molecule, a potent SMO agonist. Natural compounds were tested at three different concentrations (1, 10 and 20 μM) and their activity was compared to that of cyclopamine, the natural compound reference inhibitor of the Hedgehog pathway, which was tested at the same doses (1, 10 and 20 μM). On both graphs the activity of cyclopamine is reported as reference standard. (A) cyclopamine, 2,4,5,3′,4′-penta-Ome chalcone and Auriculasin; (B) cyclopamine, Martinoside, Jaceidin, 2,4,5,3′,4′-penta-Ome chalcone, 3,4-di-MDO-2′,4′,5′-tri-Ome dihydrochalcone.\nFIG. 6. Dose-response curve of Glabrescione B in SAG (Smoothened Agonist, 200 nM) treated NIH 3T3 Shh-light II (Shh-LII) cells. Treatment time was 48 h and normalization was against Renilla luciferase. Shown is the fold increase of Hh reporter activity compared with cells not treated with SAG.\nFIG. 19. Effect of derivatives NT8, NT9, NT10, NT11, NT12, NT13, NT14 and NT15 on the Hedgehog pathway, measured at 5 μM dose in a luciferase assay where the gene reporter was Gli1 and the pathway was activated by the SAG molecule, a potent SMO agonist. […]\nTo investigate the inhibitory properties of Glabrescione B on Hh signaling, the inventors examined its effects in NIH 3T3 Shh-light II (Shh-LII) cells stably incorporating an Hh-responsive (Gli-RE) reporter, in which induction of the pathway occurs following treatment with the SMO agonist SAG. […] The IC50 in this assay was 0.8 μM.\nThe ability of Glabrescione B to suppress Hh signaling was assessed in a cellular context of Hh pathway induction. To this end, the antagonist properties of Glabrescione B were determined in Shh Light II (ATCC, cat. # CRL-2795), a murine fibroblast NIH 3T3 cell line. These cells, stably incorporating the Gli-luc reporter and the pRL-TK Renilla reniformis (as described in Taipale, Chen et al. 2000) are a standard tool used to assay Hh pathway activity. The cells that reached the confluence were treated for 48 h with the SMO agonist SAG (200 nM, Alexis, cat. #ALX-270-426-M001) in absence or in presence of Glabrescione B at the amount indicated in FIG. 6. […] Control cells were treated with only DMSO (0.5%, SERVA, cat. #39757.02) Determination of luciferase activities was carried out using the Dual-Luciferase assay according to manufacturer's instructions (Dual-Luciferase® Reporter assay system; Promega, cat. # E1980). All presented data are firefly luciferase activity reported to the Renilla control activity. […] IC50 of 0.8 μM, represents the concentration of Glabrescione B necessary to have fifty percent of inhibition.\nEvaluation of the Hh inhibitory activity of these molecules at 5 μM was preliminarily conducted in vitro on Shh Light II cells (see example 2)."}, "[2]": {"test_system": "Hh pathway (Gli-RE reporter, activated by SMO agonist SAG)", "assay": "Gli-luciferase reporter assay in SAG-treated NIH 3T3 Shh-light II cells", "assay_type": "cell-based", "details": "Mus musculus, moderately active class"}, "SMO heptahelical domain": {"molecular_target": "SMO heptahelical domain (Homo sapiens, UniProt Q99835)", "sequence (Q99835 28-787)": "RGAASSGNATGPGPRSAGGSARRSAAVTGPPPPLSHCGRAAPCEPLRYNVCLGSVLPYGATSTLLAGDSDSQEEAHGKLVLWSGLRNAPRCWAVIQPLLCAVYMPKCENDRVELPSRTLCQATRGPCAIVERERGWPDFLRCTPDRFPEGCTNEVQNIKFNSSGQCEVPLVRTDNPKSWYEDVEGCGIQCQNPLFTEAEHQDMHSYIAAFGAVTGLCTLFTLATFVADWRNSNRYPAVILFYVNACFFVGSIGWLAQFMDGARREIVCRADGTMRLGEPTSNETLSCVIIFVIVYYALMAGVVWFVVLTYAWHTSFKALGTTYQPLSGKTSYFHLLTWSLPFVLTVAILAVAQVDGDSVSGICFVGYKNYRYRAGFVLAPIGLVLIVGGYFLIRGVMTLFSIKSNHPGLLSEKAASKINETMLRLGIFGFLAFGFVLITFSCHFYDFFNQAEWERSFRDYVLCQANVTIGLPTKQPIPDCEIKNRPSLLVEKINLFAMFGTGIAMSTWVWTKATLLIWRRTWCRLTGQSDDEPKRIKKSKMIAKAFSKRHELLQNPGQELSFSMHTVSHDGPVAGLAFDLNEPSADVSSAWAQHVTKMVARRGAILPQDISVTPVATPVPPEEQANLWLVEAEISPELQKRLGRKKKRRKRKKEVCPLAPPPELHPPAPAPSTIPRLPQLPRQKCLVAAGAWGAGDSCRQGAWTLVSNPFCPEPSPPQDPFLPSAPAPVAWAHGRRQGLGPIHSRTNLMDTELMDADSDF", "details": "cited from earlier work"}}}
{"molecule": "CC1=CC2c3c(O)cc(/C=C/c4ccc(O)cc4O)cc3OC3(c4ccc(O)c5c4OC(C)(C)C=C5)Oc4cc(O)ccc4C(C1)C23", "note": "(stereo not drawn) [Sorocein-A]", "values": [{"measurement": "activity as Hh inhibitor in luciferase assay (classification)", "setting": "[1]", "value": "not active"}]}
{"molecule": "COc1cc(OC)c2c(=O)c(-c3ccc(OCc4ccc(C(F)(F)F)cc4)c(OC)c3)coc2c1", "note": "[NT15, 5,7-Dimethoxy-3-[3-methoxy-4-(4-trifluoromethyl-benzyloxy)-phenyl]-chromen-4-one]", "values": [{"measurement": "melting point", "value": "128.4 to 130.2", "unit": "°C"}]}
{"molecule": "Veratrin", "values": [{"measurement": "activity as Hh inhibitor in luciferase assay (classification)", "setting": "[1]", "value": "not active"}]}
{"molecule": "C[C@@H]1O[C@@H](O[C@H]2[C@H](Oc3cc(O)c4c(c3)O[C@H](c3ccc(O)cc3)CC4=O)O[C@H](CO)[C@@H](O)[C@@H]2O)[C@H](O)[C@H](O)[C@H]1O", "note": "[Naringin]", "values": [{"measurement": "activity as Hh inhibitor in luciferase assay (classification)", "setting": "[1]", "value": "not active"}]}
{"molecule": "CC(C)=CCc1c2c(c(O)c3c(=O)c(-c4ccc(O)c(O)c4)coc13)C=CC(C)(C)O2", "note": "[Auriculasin]", "values": [{"measurement": "inhibition at 30 µM", "setting": "[2]", "value": "≤ 30", "unit": "%"}, {"measurement": "effect on Hh pathway in luciferase assay", "setting": "[1]", "value": "inhibit the Hh pathway"}]}
{"molecule": "COc1cc(OC)c2c(=O)c(-c3ccc(OCC=C(C)C)c(OC)c3)coc2c1", "note": "[NT12, 5,7-Dimethoxy-3-[3′-methoxy-4′-(3-methyl-but-2-enyloxy)-phenyl]-chromen-4-one]", "values": [{"measurement": "melting point", "value": "130.7 to 131.8", "unit": "°C"}]}
{"molecule": "COc1cc(OC)c2c(=O)c(-c3ccc(OC)c(OCc4ccccc4)c3)coc2c1", "note": "[NT9, 3-(3′-Benzyloxy-4′-methoxyphenyl)-5,7-dimethoxy-4H-chromen-4-one]", "values": [{"measurement": "Hh inhibitory activity compared with Glabrescione B", "setting": "[1]", "value": "more potent than Glabrescione B"}, {"measurement": "melting point", "value": 126, "unit": "°C"}]}
{"molecule": "O=c1c(O)c(-c2cc(O)c(O)c(O)c2)oc2cc(O)cc(O)c12", "note": "[Myricetin]", "values": [{"measurement": "activity as Hh inhibitor in luciferase assay (classification)", "setting": "[1]", "value": "not active"}]}
{"molecule": "COc1ccc(CCO[C@@H]2O[C@H](CO)[C@@H](OC(=O)/C=C/c3ccc(O)c(OC)c3)[C@H](O[C@@H]3O[C@@H](C)[C@H](O)[C@@H](O)[C@H]3O)[C@H]2O)cc1O", "note": "[Martinoside]", "values": [{"measurement": "effect on Hh pathway in luciferase assay", "setting": "[1]", "value": "inhibit the Hh pathway"}]}
{"molecule": "COc1cc(OC)c2c(=O)c(-c3ccc(OC)c(OCC=C(C)C)c3)coc2c1", "note": "[NT8, 3-[3′-(3-methyl-but-2-enyloxy)-4′-methoxyphenyl]-5,7-dimethoxy-4H-chromen-4-one]", "values": [{"measurement": "Hh inhibitory activity compared with Glabrescione B", "setting": "[1]", "value": "more potent than Glabrescione B"}]}
{"molecule": "COc1cc(OC)c2c(=O)c(-c3ccc(OC)c(OCc4ccc(C(F)(F)F)cc4)c3)coc2c1", "note": "[NT11, 5,7-Dimethoxy-3-[4-methoxy-3-(4-trifluoromethyl-benzyloxy)-phenyl]-chromen-4-one]", "values": [{"measurement": "melting point", "value": "128.6 to 129.1", "unit": "°C"}]}
{"molecule": "COc1ccc([C@@H]2CC(=O)c3c(O)cc(O[C@@H]4O[C@H](CO[C@@H]5O[C@@H](C)[C@H](O)[C@@H](O)[C@H]5O)[C@@H](O)[C@H](O)[C@H]4O)cc3O2)cc1O", "note": "[Hesperidin]", "values": [{"measurement": "activity as Hh inhibitor in luciferase assay (classification)", "setting": "[1]", "value": "not active"}]}
{"molecule": "COc1cc(-c2oc3cc(O)c(OC)c(O)c3c(=O)c2OC)ccc1O", "note": "[Jaceidin]", "values": [{"measurement": "effect on Hh pathway in luciferase assay", "setting": "[1]", "value": "inhibit the Hh pathway"}]}
{"molecule": "COc1cc(OC)c2c(=O)c(-c3ccc(OCc4ccccc4)c(OC)c3)coc2c1", "note": "[NT13, 3-(4-Benzyloxy-3-methoxy-phenyl)-5,7-dimethoxy-chromen-4-one]", "values": [{"measurement": "melting point", "value": "142.8 to 143.7", "unit": "°C"}]}
{"molecule": "CNC1CCC(N(Cc2cccc(-c3ccncc3)c2)C(=O)c2sc3ccccc3c2Cl)CC1", "note": "(stereo not drawn) [SAG]", "values": [{"measurement": "Kd", "setting": "SMO heptahelical domain", "value": 59, "unit": "nM"}]}
{"molecule": "COc1cc(OC)c(OC)cc1C=CC(=O)c1ccc(OC)c(OC)c1", "note": "[2,4,5,3′,4′-penta-OMe Chalcone]", "values": [{"measurement": "effect on Hh pathway in luciferase assay", "setting": "[1]", "value": "inhibit the Hh pathway"}]}
{"molecule": "COc1ccc(C(=O)C=Cc2c(OC)cc(OC)c(OC)c2OC)cc1OC", "note": "[2,3,4,6,3′,4′-hexa-OMe Chalcone]", "values": [{"measurement": "effect on Hh pathway in luciferase assay", "setting": "[1]", "value": "inhibit the Hh pathway"}]}
{"molecule": "C[C@@H]1CC[C@]2(C(=O)O)CC[C@]3(C)C(=CC[C@@H]4[C@@]5(C)CC[C@@H](O)[C@](C)(CO)[C@@H]5CC[C@]43C)[C@@H]2[C@]1(C)O", "note": "[Barbinervic Acid]", "values": [{"measurement": "activity as Hh inhibitor in luciferase assay (classification)", "setting": "[1]", "value": "not active"}]}
{"molecule": "CC1=CC2c3c(ccc(C(=O)/C=C/c4ccc(O)cc4O)c3O)OC3(c4ccc(O)c5c4OC(C)(C)C=C5)Oc4cc(O)ccc4C(C1)C23", "note": "(stereo not drawn) [Sorocein-B]", "values": [{"measurement": "activity as Hh inhibitor in luciferase assay (classification)", "setting": "[1]", "value": "not active"}]}
{"molecule": "CC(C)=CCc1c(O)ccc(C(=O)C2C(c3c(O)cc(/C=C/c4ccc(O)cc4O)cc3O)C=C(C)CC2c2ccc(O)cc2O)c1O", "note": "(stereo not drawn) [Kuwanol-E]", "values": [{"measurement": "activity as Hh inhibitor in luciferase assay (classification)", "setting": "[1]", "value": "not active"}]}
{"molecule": "Isosophoranon", "values": [{"measurement": "activity as Hh inhibitor in luciferase assay (classification)", "setting": "[1]", "value": "not active"}]}
{"molecule": "COc1cc(OC)c(C(=O)CCc2ccc3c(c2)OCO3)cc1OC", "note": "[3,4-di-MDO-2′,4′,5′-tri-OMe dihydrochalcone]", "values": [{"measurement": "effect on Hh pathway in luciferase assay", "setting": "[1]", "value": "inhibit the Hh pathway"}]}
